From patent US6737383B1, “Herbicidal oxadiazolidines” (priority 1999, dated 2004)

How the values were obtained:
cocklebur = test: Test B pre/postemergence cocklebur; format: in vivo, Xanthium strumarium
Method in brief: (§1)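 Response is a visual 0-to-10 score relative to untreated plants, where 0 means no effect and 10 means complete control, taken twelve to sixteen days after application. Treatments went onto soil at planting and onto foliage of 1- to 4-leaf plants, using a surfactant-containing non-phytotoxic solvent.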

giant foxtail = test: Test B pre/postemergence giant foxtail; format: in vivo, Setaria faberii
Method in brief: as §1

morningglory = test: Test B pre/postemergence morningglory; format: in vivo, Ipomoea hederacea
Method in brief: as §1

bamyardgrass = test: Test B flood test barnyardgrass; format: in vivo, Echinochloa crus-galli; details: for Plant response rating, Barnyardgrass (0 to 10 scale, 0 is no effect, 10 is complete control): Rate 62 g/ha, Pre-emergence; for Plant response rating, Barnyardgrass (0 to 10 scale, 0 is no effect, 10 is complete control) / Barnyardgrass plant response rating (0 to 10 scale, 0 is no effect, 10 is complete control): flood test species, visual evaluation after twelve to sixteen days; for Barnyardgrass plant response rating (0 to 10 scale, 0 is no effect, 10 is complete control): Rate 125 g/ha, under heading Pre-emergence
Method in brief: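 Read-out is a visual response score from 0 (no effect) to 10 (complete control), assigned by comparison with untreated controls. Treatment was applied at the 2-leaf stage, and plants stayed in the greenhouse for twelve to sixteen days before scoring.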

[1] = Postemergence, Rate 62 g/ha, scale 0 to 10, 0 is no effect, 10 is complete control
[2] = Postemergence, Rate 125 g/ha, scale of 0 to 10 where 0 is no effect and 10 is complete control
[3] = Postemergence, Rate 250 g/ha, scale of 0 to 10, 0 is no effect, 10 is complete control
[4] = Postemergence, Rate 500 g/ha, scale of 0 to 10 where 0 is no effect and 10 is complete control
[5] = Preemergence, Rate 62 g/ha, scale of 0 to 10 where 0 is no effect and 10 is complete control
[6] = Preemergence, Rate 125 g/ha, scale of 0 to 10 where 0 is no effect and 10 is complete control
[7] = Preemergence, Rate 250 g/ha, scale 0 to 10 (0 no effect, 10 complete control)
[8] = Preemergence, Rate 500 g/ha, scale of 0 to 10 where 0 is no effect and 10 is complete control
[9] = Rate 250 g/ha, Pre-emergence (flood test species), scale 0 to 10, 0 is no effect, 10 is complete control
[10] = Rate 500 g/ha, Pre-emergence section of Table B, 0 to 10 scale (0 no effect, 10 complete control)
[11] = Rate 500 g/ha, Postemergence, scale 0 to 10, 0 is no effect, 10 is complete control

Compound | Plant response rating, Cocklebur (cocklebur; [1]) | Cocklebur plant response rating (cocklebur; [3]) | Cocklebur plant response rating (cocklebur; [5]) | Cocklebur plant response rating (cocklebur; [6]) | Plant response rating, Cocklebur (cocklebur; [7]) | Plant response rating, Cocklebur (cocklebur; [8]) | Plant response rating, Giant foxtail (giant foxtail; [1]) | Giant foxtail plant response rating (giant foxtail; [3]) | Giant foxtail plant response rating (giant foxtail; [5]) | Giant foxtail plant response rating (giant foxtail; [6]) | Plant response rating, Giant foxtail (giant foxtail; [7]) | Plant response rating, Giant foxtail (giant foxtail; [8]) | Plant response rating, Morningglory (morningglory; [1]) | Morningglory plant response rating (morningglory; [3]) | Morningglory plant response rating (morningglory; [5]) | Morningglory plant response rating (morningglory; [6]) | Plant response rating, Morningglory (morningglory; [7]) | Plant response rating, Morningglory (morningglory; [8]) | Plant response rating, Barnyardgrass (0 to 10 scale, 0 is no effect, 10 is complete control) (bamyardgrass) | Barnyardgrass plant response rating (0 to 10 scale, 0 is no effect, 10 is complete control) (bamyardgrass) | other results
CCCCCn1c(=O)on(C(=O)N(c2ccc(F)cc2F)C(C)C)c1=O [Compound 636] | 0 | 3 | 0 | 0 | 0 | 0 | 2 | 9 | 9 | 10 | 10 | 10 | 2 | 6 | 0 | 0 | 0 | 2 | 0 | 0 | Plant response rating, Cocklebur (cocklebur; [2]): 3; Plant response rating, Cocklebur (cocklebur; [4]): 3; Plant response rating, Giant foxtail (giant foxtail; [2]): 7; Plant response rating, Giant foxtail (giant foxtail; [4]): 9; Plant response rating, Morningglory (morningglory; [2]): 2; Plant response rating, Morningglory (morningglory; [4]): 6; Barnyardgrass plant response rating (bamyardgrass; [9]): 0; Barnyardgrass plant response rating (bamyardgrass; [10]): 2
CC(C)N(C(=O)n1oc(=O)n(CC(=O)C2CCC2)c1=O)c1ccc(Cl)cc1 [Compound 643] | 0 | 0 | 0 | 0 | 0 | 0 | 0 | 0 | 6 | 8 | 10 | 10 | 0 | 4 | 0 | 0 | 0 | 0 | 0 | 0 | Cocklebur plant response rating (cocklebur; [2]): 0; Plant response rating, Cocklebur (cocklebur; [4]): 0; Giant foxtail plant response rating (giant foxtail; [2]): 0; Plant response rating, Giant foxtail (giant foxtail; [4]): 0; Morningglory plant response rating (morningglory; [2]): 4; Plant response rating, Morningglory (morningglory; [4]): 6; Barnyardgrass plant response rating (bamyardgrass; [9]): 0; Barnyardgrass plant response rating (bamyardgrass; [10]): 0
CC[C@@H](C)n1c(=O)on(C(=O)N(c2ccc(Cl)cc2)C(C)C)c1=O [Compound 665] | 0 | 0 | 0 | 0 | 0 | 0 | 2 | 8 | 9 | 10 | 10 | 10 | 4 | 6 | 0 | 0 | 0 | 4 | 0 | 0 | Cocklebur plant response rating (cocklebur; [2]): 0; Cocklebur plant response rating (cocklebur; [11]): 2; Giant foxtail plant response rating (giant foxtail; [2]): 4; Giant foxtail plant response rating (giant foxtail; [11]): 9; Morningglory plant response rating (morningglory; [2]): 6; Morningglory plant response rating (morningglory; [11]): 8; Barnyardgrass plant response rating (bamyardgrass; [9]): 2; Barnyardgrass plant response rating (bamyardgrass; [10]): 6
CC[C@@H](C)n1c(=O)on(C(=O)N(c2ccc(F)cc2F)C(C)C)c1=O [Compound 667] | 2 | 4 | 0 | 0 | 0 | 0 | 5 | 9 | 10 | 10 | 10 | 10 | 2 | 4 | 0 | 1 | 3 | 6 | 0 | 0 | Cocklebur plant response rating (cocklebur; [2]): 3; Cocklebur plant response rating (cocklebur; [11]): 5; Giant foxtail plant response rating (giant foxtail; [2]): 9; Giant foxtail plant response rating (giant foxtail; [11]): 9; Morningglory plant response rating (morningglory; [2]): 2; Morningglory plant response rating (morningglory; [11]): 6; Barnyardgrass plant response rating (bamyardgrass; [9]): 0; Barnyardgrass plant response rating (bamyardgrass; [10]): 0
